According to US7423181B2, “Aminoalkoxy-functional chalcones” (Lica Pharmaceuticals A/S, priority 2002, dated 2008):
≈ marks a conversion by molar mass, not a printed value. Read-outs that look alike come from different tables or passages of the source.

Experiments:
[1] = test system: Staphylococcus aureus ATCC29213; experiment: MIC determination in broth microdilution assay; details: A: Staphylococcus aureus ATCC29213
[2] = test system: Staphylococcus aureus ATCC33591(resistant to methicillin); experiment: MIC determination in broth microdilution assay; details: B: Staphylococcus aureus ATCC33591(resistant to methicillin)
S.aureus ATCC33591 = details: time-kill curve FIG. 2, S.aureus ATCC33591
[3] = test system: panel of 10 different non-fastidious bacteria; experiment: Screening against panel of non-fastidious bacteria
[4] = test system: Enterococcus faecalis ATCC29212; experiment: MIC determination in broth microdilution assay; details: D: Enterococcus faecalis ATCC29212
[5] = test system: Enterococcus faecium #17501 (vancomycin-resistant clinical isolate); experiment: MIC determination in broth microdilution assay; details: E: Enterococcus faecium #17501 (vancomycin-resistant)
Eschericia coli ESS = experiment: MIC determination in broth microdilution assay; details: H: Eschericia coli ESS
[6] = test system: Streptococcus pneumoniae #998 (clinical isolate); experiment: MIC determination in broth microdilution assay; details: F: Streptococcus pneumoniae #998
[7] = test system: panel of six strains Helicobacter pylori; experiment: MIC determination against Helicobacter pylori (agar dilution); details: read-out: MICs against Helicobacter pylori
S.aureus ATCC29213 = details: time-kill curve FIG. 3, S.aureus ATCC29213
[8] = mice
[9] = test system: Plasmodium falciparum 3D7; experiment: Plasmodium falciparum assay; format: cell-based
[10] = Determination of metabolic stability (liver microsomes); format: in vitro ADME; details: rat liver microsomes, 20 μM, 15 min
Description: Determination of Metabolic Stability
Incubations were performed with Wistar rat liver microsomes (0.25 mg/ml) in 2% sodium bicarbonate solution. NADP (0.13 mg/ml), glucose-6-phosphate (0.63 mg/ml) and glucose-6-phosphate dehydrogenase (0.38 units/ml) were used as NADPH generation system and UDPGA (0.48 mg/ml) was added to include the phase II reaction, glucuronic acid conjugation, in the assay. After 5 minutes of pre-incubation the reaction was started by addition of the test article to give a final concentration of 20 μM. Samples were incubated for 15 min at 37° C. and the reactions were terminated by addition of equal volumes of acetonitrile. Blank incubations were performed at the same concentration but without addition of microsomes. Both blank and microsome-containing samples were made in replicats of three. Prior to analysis samples were centrifuged for 10 min. at 3500 rpm,HPLC system:
Initial conditions were 40% mobile phase A (acetonitrile) and 60% mobile phase B (10 mM ammonium acetate pH 9.5). During the first 20 minutes, the mobile phase was changed via a linear gradient to 90% A and 10% B. This was followed by a 5 minutes linear gradient to initial conditions, which were maintained for 5 min. The flow rate was 0.20 m)/min and injection volume 10 μl.

Plasmodium berghei K173 = details: NMRI female mice; for effect on development of the infection: multiple oral administrations, FIG. 7
[11] = test system: Plasmodium falciparum DD2(Cq-res); details: read-out: Plasmodium falciparum IC50
[12] = test system: Plasmodium falciparum K1(Cq-res); details: read-out: Plasmodium falciparum IC50
[13] = test system: Plasmodium falciparum 7G8(Cq-res); details: read-out: Plasmodium falciparum IC50
[14] = test system: Bacteroides fragilis, Clostridium perfringens, Clostridium difficele; format: cell-based; details: single concentration of compound (100 μM)
[15] = test system: dihydroorotate dehydrogenase (DHODH); experiment: DHODH assay; format: biochemical; details: at 10 μM
Description: 100 μl chalcone or 0.1 M Tris-HCl pH 8.0 is added to a well in a 96-wells microtiter plate. Then 50 μl enzyme dilution is added. The microtiter plate is placed in the Powerwavex340 and the enzymatic reactions starts when adding 100 μl assay mixture. The reaction are measured every 20 sec. for 10 min. The samples with chalcones are compared with the samples with 0.1 M Tris-HCl pH 8.0 and the percent inhibition is calculated.
Enzyme dilution: The solution of recombinant purified enzyme is dissolved in 0.1 M Tris-HCl pH 8 to give an initial velocity of 0.04-0.05 ΔA/min.
2,6-dichlorophenolindophenol (DCIP)-stock solution: 40 mg DCIP and 10 ml 99% Ethanol are mixed for 10 min at RT. Then 100 μl 1.0 M Tris-HCl pH 8 and miliQ H2O are added to a final volume of 100 ml. The A600 of the DCIP-stock solution are measured in a microtiter plate on the Powerwavex340 (Bio-Tek instruments,Inc.)
[…]: 25 mM dihydroorotate stock-solution is prepared by first dissolving in the same amount of mol NaOH and then miliQ H2O is added to the final volume.
Assay mix (10 ml solution): 600 μl of DHODH-stock solution and X ml (depending on the A600 value of stock-solution) DCIP to a final A600=2.5 are mixed. Then 0.1 M Tris-HCl pH 8.0 are added to a final volume of 10 ml.
Preparation of compound soluton: A 10 mM stock-solution of compound (e.g. a chalcone derivative) is made in dimethylsulfoxid (DMSO). The compound is then diluted in 0.1 M Tris-HCl pH 8 to the test concentrations. The final DMSO concentration in the sample is 10%

[16] = test system: parasitic or bacterial infections; experiment: In vivo potency of chalcones
[17] = test system: cutaneous and visceral Leishmania infection; details: cited from earlier work
[18] = Determination of solubility; format: physicochemical; details: reference chalcones
Description: Determination of Solubility
Solubility of the compounds was determined by preparing a saturated solution of compound in 0.3 M phosphate buffer (pH 7.4±0.3) in a brown glass tube. The suspensions were rotated slowly for 24 hours. Aliquots were centrifuged for 10 minutes at 14.000 rpm and supernatants were diluted in 40% (v/v) acetonitrile in water prior to HPLC analysis. Concentrations of analytes were quantified against a standard curve and used as term of solubility. The HPLC-UV method used for the assessment of solubility is the same as used in the in vitro metabolism assay.

Pharmacokinetic studies = format: in vivo, mice; details: for bioavailability: in mice
Description: Samples of serum were taken at defined timepoints.
The supernatant was used for the analysis.
The flow rate was […], injection volume 10 μl.

P.yoelii and P.berghei = details: cited from earlier work
[19] = Plasmodium falciparum 3D7 (Table 2), read-out: IC50

## COc1ccc(C(=O)/C=C/c2cc(-c3cc(C)cc(C)c3)ccc2OCCN(C)C)cc1 [Compound C023, (E)-3-[4-(2′-Dimethylamino-ethoxy)-3′,5′-dimethyl-biphenyl-3-yl]-1-(4-methoxy-phenyl)-propenone]
[1]
  MIC: 4.7 µM (≈ 2.02 µg/mL)
[2]
  MIC: 4.7 µM (≈ 2.02 µg/mL)
S.aureus ATCC33591
  MIC: 9.4 µM (≈ 4.04 µg/mL)
  bactericidal action (CFU counts per ml above the MIC): bactericidal
[3]
  potency against Gram-positive pathogens in comparison with Licochalcone A: increased potency
[4]
  MIC: 4.7 µM (≈ 2.02 µg/mL)
[5]
  MIC: 4.7 µM (≈ 2.02 µg/mL)
Eschericia coli ESS
  MIC: 9.4 µM (≈ 4.04 µg/mL)
[6]
  MIC: 18.8 µM (≈ 8.08 µg/mL)

## CC(=O)Nc1cccc(C(=O)/C=C/c2cc(-c3cc(C)cc(C)c3)ccc2OCCN(C)C)c1 [Compound C088, N-(3-{3-[4-(2-Dimethylamino-ethoxy)-3′,5′-dimethyl-biphenyl-3-yl]-(E)-acryloyl}-phenyl)-acetamide]
[7]
  MIC: 12 to 25 µM (≈ 5.48 to 11.4 µg/mL)

## CCN(CC)Cc1ccccc1C(=O)/C=C/c1cc(-c2cc(C)cc(C)c2)ccc1OCCN(C)C [Compound C030, (E)-1-(2-Diethylaminomethyl-phenyl)-3-[4-(2-dimethylamino-ethoxy)-3′,5′-dimethyl-biphenyl-3-yl]-propenone]
S.aureus ATCC29213
  MIC: 18.8 µM (≈ 9.11 µg/mL)
  bactericidal action (CFU counts per ml above the MIC): bactericidal
[3]
  potency against Gram-positive pathogens in comparison with Licochalcone A: increased potency

## CN(C)CCOc1ccc(-c2ccccc2C(F)(F)F)cc1/C=C/C(=O)c1ccccc1CN(C)C [Compound C130, (E)-3-[4-(2-Dimethylamino-ethoxy)-2′-trifluoromethyl-biphenyl-3-yl]-1-(2-dimethylaminomethyl-phenyl)-propenone]
[8]
  Metabolic turn-over: 77%
[9]; 3D7(Cq-sen) (Table 3), read-out: Plasmodium falciparum IC50
  IC50: 30 nM
[9]; [19]
  IC50: 30 nM
[9]; dose-response curve at Plasmodium falciparum, FIG. 4
  times more potent than LicA: 213 times
[10]
  Metabolic turn-over in vitro: 6%
Plasmodium berghei K173
  effect on development of the infection: inhibit the development of the infection
[11]
  IC50: 60 nM
[12]
  IC50: 40 nM
[13]
  IC50: 50 nM

## COc1ccc(C(=O)/C=C/c2cc(-c3cc(C)cc(C)c3)ccc2OCCN(C)C)c(Cl)c1 [Compound C026, (E)-1-(2-Chloro-4-methoxy-phenyl)-3-[4-(2-dimethylamino-ethoxy)-3′,5′-dimethyl-biphenyl-3-yl]-propenone]
[14]
  activity against anaerobic bacteria: activity against all microorganisms within the test panel
[15]
  Inhibition of DHODH: 19%

## COc1ccc(C(=O)/C=C/c2cc(C(C)(C)C)cc(C(C)(C)C)c2OCCN(C)C)c(F)c1 [Compound C028, (E)-3-[3,5-Di-tert-butyl-2-(2-dimethylamino-ethoxy)-phenyl]-1-(2-fluoro-4-methoxy-phenyl)-propenone]
[14]
  activity against anaerobic bacteria: activity against all microorganisms within the test panel
[15]
  Inhibition of DHODH: 23%

## CN(C)CCOc1ccc(-c2ccccc2Cl)cc1/C=C/C(=O)c1ccccc1CN(C)C [Compound C128, (E)-3-[2′-Chloro-4-(2-dimethylamino-ethoxy)-biphenyl-3-yl]-1-(2-dimethylaminomethyl-phenyl)-propenone]
Plasmodium berghei K173
  effect on development of the infection: inhibit the development of the infection

## C=CC(C)(C)c1cc(/C=C/C(=O)c2ccc(O)cc2)c(OC)cc1O [LicA, Licochalcone A]
[16]
  in vivo potency: 50 mg/kg
[17]
  efficacy in experimental animal models: efficacy in experimental animal models of cutaneous and visceral Leishmania infection
[1]
  MIC: 37.5 µM (≈ 12.7 µg/mL)
[18]
  aqueous solubility: approximately 0.01 mg/ml
[2]
  MIC: 37.5 µM (≈ 12.7 µg/mL)
[10]
  Metabolic turn-over in vitro: 100%
[10]; listed as Lica
  Metabolic turn-over in vitro: 100%
[3]; Gram-positive bacteria
  bactericidal activity against common pathogenic Gram-positive non-fastidious bacteria: moderate bactericidal activity
[3]; prototype pathogenic Gram-negative bacterium
  activity against Eschericia coli: modest or no activity
[4]
  MIC: 37.5 µM (≈ 12.7 µg/mL)
[5]
  MIC: 37.5 µM (≈ 12.7 µg/mL)
Eschericia coli ESS
  MIC: 300.0 µM (≈ 102 µg/mL)
[15]
  Inhibition of DHODH: 25%
Pharmacokinetic studies
  bioavailability: < 6%
Pharmacokinetic studies; in vivo
  t1/2 in vivo: 10 min
[6]
  MIC: 75.0 µM (≈ 25.4 µg/mL)
P.yoelii and P.berghei
  protection of mice from infection: protects mice from infection with P.yoelii and P.berghei

## COc1ccc(C(=O)/C=C/c2cc(-c3ccccc3C)ccc2OCCN(C)C)c(CN(C)C)c1 [Compound C114, (E)-3-[4-(2-Dimethylamino-ethoxy)-2′-methyl-biphenyl-3-yl]-1-(2-imethylaminomethyl-4-methoxy-phenyl)-propenone]
Plasmodium berghei K173
  effect on development of the infection: inhibit the development of the infection

## Cc1ccccc1-c1ccc(OCCN(C)C)c(/C=C/C(=O)c2ccccc2CN2CCCC2)c1 [Compound C119, (E)-3-[4-(2-Dimethylamino-ethoxy)-2′-methyl-biphenyl-3-yl]-1-(2-pyrrolidin-1-ylmethyl-phenyl)-propenone]
Plasmodium berghei K173
  effect on development of the infection: inhibit the development of the infection

## COc1ccc(C(=O)/C=C/c2cccc(OCCN(C)C)c2)c(OC)c1OC [Compound C043, (E)-3-[3-(2-Dimethylamino-ethoxy)-phenyl]-1-(2,3,4-trimethoxy-phenyl)-propenone]
Pharmacokinetic studies
  bioavailability: 42%

## Cc1ccccc1-c1ccc(OCCN(C)C)c(/C=C/C(=O)c2ccccc2CN(C)C)c1 [Compound C035, (E)-3-[4-(2-Dimethylamino-ethoxy)-2′-methyl-biphenyl-3-yl]-1-(2-dimethylaminomethyl-phenyl)-propenone]
[9]; [19]
  IC50: 100 nM
Plasmodium berghei K173; multiple intra venous administrations, FIG. 6
  effect on parasitaemia: significant decrease in the parasitaemia
